Source: patent publication US20110118262A1, “Pyrrolidinyl and Piperidinyl Compounds Useful as NHE-1 Inhibitiors” (BOEHRINGER INGELHEIM INTERNATIONAL GMBH, priority 2008, published 2011)
pIC50: −log10 of the molar value.

Biological target: T1, NHE-1 (Homo sapiens, UniProt P19634)
T1 construct: endogenous in cells; host or cells: HT-29
Assay: Evaluation of NHE-1 Inhibition (pHi) in HT-29 cells
Format: cell-based
Details: BCECF dye, 50% inhibition of the intracellular pH recovery, read-out: NHE1 HT29 pHi IC50
Protocol: Evaluation of NHE-1 Inhibition (pHi)
HT-29 cells resuspended in DMEM supplemented with 10% FBS, 1% NEAA, and 1% Penn-Strep are seeded at 10,000 cells/well in collagen coated 384 well plates which are then incubated for 24 hours at 37° C. The next day, the medium is removed and the cells are dye (Invitrogen's BCECF) loaded for 30 minutes at 37° C., washed three times with an acid loading buffer (10 mM NH4Cl, 1.8 mM CaCl2, 90 mM Choline Cl, 5 mM Glucose, 15 mM Hepes, 5 mM KCl, 1 mM MgCl2, adjusted to pH 7.5 with KOH) and further incubated at RT for 30 minutes.
At the end of the incubation, the buffer is removed and 5 uL of fresh acid loading buffer is added to each well to prevent the dessication of the cells. The plate is placed in a Hamamatsu FDSS6000 instrument and candidate compounds are added to the cells.

T1 sequence (P19634 whole entry): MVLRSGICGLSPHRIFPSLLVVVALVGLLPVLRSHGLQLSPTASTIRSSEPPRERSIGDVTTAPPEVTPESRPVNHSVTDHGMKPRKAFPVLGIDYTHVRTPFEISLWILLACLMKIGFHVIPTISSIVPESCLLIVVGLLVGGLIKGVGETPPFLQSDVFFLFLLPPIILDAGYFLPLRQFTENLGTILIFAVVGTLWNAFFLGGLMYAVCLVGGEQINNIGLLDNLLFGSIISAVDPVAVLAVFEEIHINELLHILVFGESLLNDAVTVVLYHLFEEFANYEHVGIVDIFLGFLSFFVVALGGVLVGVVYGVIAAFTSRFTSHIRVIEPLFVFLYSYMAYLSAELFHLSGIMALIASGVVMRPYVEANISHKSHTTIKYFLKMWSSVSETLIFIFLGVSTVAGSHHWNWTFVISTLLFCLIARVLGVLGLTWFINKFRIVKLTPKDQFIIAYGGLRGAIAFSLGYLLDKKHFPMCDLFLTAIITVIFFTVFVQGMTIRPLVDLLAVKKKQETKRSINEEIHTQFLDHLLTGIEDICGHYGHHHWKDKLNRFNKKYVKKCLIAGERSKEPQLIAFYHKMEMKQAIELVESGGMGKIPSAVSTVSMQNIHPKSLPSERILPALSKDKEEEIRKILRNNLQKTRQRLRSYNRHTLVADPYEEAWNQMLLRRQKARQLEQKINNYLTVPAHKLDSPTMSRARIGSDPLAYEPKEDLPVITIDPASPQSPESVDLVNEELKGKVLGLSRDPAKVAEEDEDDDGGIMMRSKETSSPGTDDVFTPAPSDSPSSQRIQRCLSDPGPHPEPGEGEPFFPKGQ

Row | SMILES | pIC50
1 | CN1CCC(C(=O)N2CCC(c3ccc(C(=O)NC(=N)N)cc3C(F)(F)F)CC2)CC1 [N-{4-[1-(1-Methyl-piperidine-4-carbonyl)-piperidin-4-yl]-3-trifluoromethyl-benzoyl}-guanidine] | 9.52
2 | N=C(N)NC(=O)c1ccc(C2CCN(C(=O)C3CCN(c4ncccn4)CC3)CC2)c(C(F)(F)F)c1 [N-{4-[1-(1-Pyrimidin-2-yl-piperidine-4-carbonyl)-piperidin-4-yl]-3-trifluoromethyl-benzoyl}-guanidine] | 7.15
3 | Cc1cc(C2CCN(C(=O)c3ncc[nH]3)CC2)c(C(F)(F)F)cc1C(=O)NC(=N)N [N-{4-[1-(1H-Imidazole-2-carbonyl)-piperidin-4-yl]-2-methyl-5-trifluoromethyl-benzoyl}-guanidine] | 8.40
4 | Cc1cc(C2CCN(C(=O)c3cc4ccccc4[nH]3)CC2)c(C(F)(F)F)cc1C(=O)NC(=N)N [N-{4-[1-(1H-Indole-2-carbonyl)-piperidin-4-yl]-2-methyl-5-trifluoromethyl-benzoyl}-guanidine] | 6.54
5 | Cc1cc(C2CCN(C(=O)c3ccc4[nH]ccc4c3)CC2)c(C(F)(F)F)cc1C(=O)NC(=N)N [N-{4-[1-(1H-Indole-5-carbonyl)-piperidin-4-yl]-2-methyl-5-trifluoromethyl-benzoyl}-guanidine] | 7.33
6 | N=C(N)NC(=O)c1ccc(C2CCN(C(=O)c3ccc[nH]3)CC2)c(C(F)(F)F)c1 [N-{4-[1-(1H-Pyrrole-2-carbonyl)-piperidin-4-yl]-3-trifluoromethyl-benzoyl}-guanidine] | 7.34
7 | N=C(N)NC(=O)c1ccc(C2CCN(C(=O)c3ccc[nH]3)CC2)cc1 [N-{4-[1-(1H-Pyrrole-2-carbonyl)-piperidin-4-yl]-benzoyl}-guanidine] | 6.41
8 | N=C(N)NC(=O)c1ccc(C2CCN(C(=O)c3ccc[nH]3)C2)c(C(F)(F)F)c1 (centres unmarked) [N-{4-[1-(1H-Pyrrole-2-carbonyl)-pyrrolidin-3-yl]-3-trifluoromethyl-benzoyl}-guanidine] | 7.72
9 | CC(C)(C)C(=O)N1CCC(c2ccc(C(=O)NC(=N)N)cc2C(F)(F)F)CC1 [N-{4-[1-(2,2-Dimethyl-propionyl)-piperidin-4-yl]-3-trifluoromethyl-benzoyl}-guanidine] | 7.17
10 | N=C(N)NC(=O)c1ccc(C2CCN(C(=O)c3ccc4c(c3)OCCO4)CC2)c(C(F)(F)F)c1 [N-{4-[1-(2,3-Dihydro-benzo[1,4]dioxine-6-carbonyl)-piperidin-4-yl]-3-trifluoromethyl-benzoyl}-guanidine] | 6.89
11 | N=C(N)NC(=O)c1ccc(C2CCN(C(=O)c3ccc4c(c3)CCO4)CC2)c(C(F)(F)F)c1 [N-{4-[1-(2,3-Dihydro-benzofuran-5-carbonyl)-piperidin-4-yl]-3-trifluoromethyl-benzoyl}-guanidine] | 7.64
12 | COc1cccc(C(=O)N2CCC(c3ccc(C(=O)NC(=N)N)cc3C(F)(F)F)CC2)c1OC [N-{4-[1-(2,3-Dimethoxy-benzoyl)-piperidin-4-yl]-3-trifluoromethyl-benzoyl}-guanidine] | 7.34
13 | Cc1cc(C2CCN(C(=O)C(C)(C)N)CC2)c(C(F)(F)F)cc1C(=O)NC(=N)N [N-{4-[1-(2-Amino-2-methyl-propionyl)-piperidin-4-yl]-2-methyl-5-trifluoromethyl-benzoyl}-guanidine] | 8.00
14 | CC(C)(N)C(=O)N1CCC(c2ccc(C(=O)NC(=N)N)cc2C(F)(F)F)CC1 [N-{4-[1-(2-Amino-2-methyl-propionyl)-piperidin-4-yl]-3-trifluoromethyl-benzoyl}-guanidine] | 8.10
15 | CC(C)(C)C(N)C(=O)N1CCC(c2ccc(C(=O)NC(=N)N)cc2C(F)(F)F)CC1 (centres unmarked) [N-{4-[1-(2-Amino-3,3-dimethyl-butyryl)-piperidin-4-yl]-3-trifluoromethyl-benzoyl}-guanidine] | 7.80
16 | N=C(N)NC(=O)c1ccc(C2CCN(C(=O)C(N)CC3CC3)CC2)c(C(F)(F)F)c1 (centres unmarked) [N-{4-[1-(2-Amino-3-cyclopropyl-propionyl)-piperidin-4-yl]-3-trifluoromethyl-benzoyl}-guanidine] | 7.72
17 | N=C(N)NC(=O)c1ccc(C2CCN(C(=O)C(N)CO)CC2)c(C(F)(F)F)c1 (centres unmarked) [N-{4-[1-(2-Amino-3-hydroxy-propionyl)-piperidin-4-yl]-3-trifluoromethyl-benzoyl}-guanidine] | 8.30
18 | CC(C)C(N)C(=O)N1CCC(c2ccc(C(=O)NC(=N)N)cc2C(F)(F)F)CC1 (centres unmarked) [N-{4-[1-(2-Amino-3-methyl-butyryl)-piperidin-4-yl]-3-trifluoromethyl-benzoyl}-guanidine] | 7.92
19 | N=C(N)NC(=O)c1ccc(C2CCN(C(=O)C(N)Cc3ccccc3)CC2)c(C(F)(F)F)c1 (centres unmarked) [N-{4-[1-(2-Amino-3-phenyl-propionyl)-piperidin-4-yl]-3-trifluoromethyl-benzoyl}-guanidine] | 7.72

Row | SMILES | pIC50
20 | N=C(N)NC(=O)c1ccc(C2CCN(C(=O)C(N)Cc3ccncc3)CC2)c(C(F)(F)F)c1 (centres unmarked) [N-{4-[1-(2-Amino-3-pyridin-4-yl-propionyl)-piperidin-4-yl]-3-trifluoromethyl-benzoyl}-guanidine] | 7.49
21 | N=C(N)NC(=O)c1ccc(C2CCN(C(=O)C(N)Cc3cccs3)CC2)c(C(F)(F)F)c1 (centres unmarked) [N-{4-[1-(2-Amino-3-thiophen-2-yl-propionyl)-piperidin-4-yl]-3-trifluoromethyl-benzoyl}-guanidine] | 7.46
22 | CC(C)CC(N)C(=O)N1CCC(c2ccc(C(=O)NC(=N)N)cc2C(F)(F)F)CC1 (centres unmarked) [N-{4-[1-(2-Amino-4-methyl-pentanoyl)-piperidin-4-yl]-3-trifluoromethyl-benzoyl}-guanidine] | 7.40
23 | CSCCC(N)C(=O)N1CCC(c2ccc(C(=O)NC(=N)N)cc2C(F)(F)F)CC1 (centres unmarked) [N-{4-[1-(2-Amino-4-methylsulfanyl-butyryl)-piperidin-4-yl]-3-trifluoromethyl-benzoyl}-guanidine] | 7.89
24 | N=C(N)NC(=O)c1ccc(C2CCN(C(=O)CN)CC2)c(C(F)(F)F)c1 [N-{4-[1-(2-Amino-acetyl)-piperidin-4-yl]-3-trifluoromethyl-benzoyl}-guanidine] | 8.40
25 | CC(N)C(=O)N1CCC(c2ccc(C(=O)NC(=N)N)cc2C(F)(F)F)CC1 (centres unmarked) [N-{4-[1-(2-Amino-propionyl)-piperidin-4-yl]-3-trifluoromethyl-benzoyl}-guanidine] | 8.30
26 | CS(=O)(=O)c1ccc(C(=O)N2CCC(c3ccc(C(=O)NC(=N)N)cc3C(F)(F)F)CC2)c(Cl)c1 [N-{4-[1-(2-Chloro-4-methanesulfonyl-benzoyl)-piperidin-4-yl]-3-trifluoromethyl-benzoyl}-guanidine] | 7.22
27 | N=C(N)NC(=O)c1ccc(C2CCN(C(=O)c3ccccc3Cl)CC2)c(C(F)(F)F)c1 [N-{4-[1-(2-Chloro-benzoyl)-piperidin-4-yl]-3-trifluoromethyl-benzoyl}-guanidine] | 6.92
28 | N#Cc1ccccc1C(=O)N1CC=C(c2ccc(C(=O)NC(=N)N)cc2C(F)(F)F)CC1 [N-{4-[1-(2-Cyano-benzoyl)-1,2,3,6-tetrahydro-pyridin-4-yl]-3-trifluoromethyl-benzoyl}-guanidine] | 7.03
29 | N#Cc1ccccc1C(=O)N1CCC(c2ccc(C(=O)NC(=N)N)cc2C(F)(F)F)CC1 [N-{4-[1-(2-Cyano-benzoyl)-piperidin-4-yl]-3-trifluoromethyl-benzoyl}-guanidine] | 7.21
30 | CN(C)CC(=O)N1CCC(c2ccc(C(=O)NC(=N)N)cc2C(F)(F)F)CC1 [N-{4-[1-(2-Dimethylamino-acetyl)-piperidin-4-yl]-3-trifluoromethyl-benzoyl}-guanidine] | 8.30
31 | N=C(N)NC(=O)c1ccc(C2CCN(C(=O)c3ccc(C(F)(F)F)cc3F)CC2)c(C(F)(F)F)c1 [N-{4-[1-(2-Fluoro-4-trifluoromethyl-benzoyl)-piperidin-4-yl]-3-trifluoromethyl-benzoyl}-guanidine] | 6.52
32 | N=C(N)NC(=O)c1ccc(C2CCN(C(=O)c3ccccc3F)CC2)c(C(F)(F)F)c1 [N-{4-[1-(2-Fluoro-benzoyl)-piperidin-4-yl]-3-trifluoromethyl-benzoyl}-guanidine] | 6.90
33 | Cc1cc(C2CCN(C(=O)C(C)(C)O)CC2)c(C(F)(F)F)cc1C(=O)NC(=N)N [N-{4-[1-(2-Hydroxy-2-methyl-propionyl)-piperidin-4-yl]-2-methyl-5-trifluoromethyl-benzoyl}-guanidine] | 7.80
34 | N=C(N)NC(=O)c1ccc(C2CCN(C(=O)Cn3ccnc3)CC2)c(C(F)(F)F)c1 [N-{4-[1-(2-Imidazol-1-yl-acetyl)-piperidin-4-yl]-3-trifluoromethyl-benzoyl}-guanidine] | 8.22
35 | C[S+]([O-])c1ccccc1C(=O)N1CCC(c2ccc(C(=O)NC(=N)N)cc2C(F)(F)F)CC1 (centres unmarked) [N-{4-[1-(2-Methanesulfinyl-benzoyl)-piperidin-4-yl]-3-trifluoromethyl-benzoyl}-guanidine] | 7.27
36 | CS(=O)(=O)c1ccccc1C(=O)N1CC=C(c2ccc(C(=O)NC(=N)N)cc2C(F)(F)F)CC1 [N-{4-[1-(2-Methanesulfonyl-benzoyl)-1,2,3,6-tetrahydro-pyridin-4-yl]-3-trifluoromethyl-benzoyl}-guanidine] | 7.14
37 | CS(=O)(=O)c1ccccc1C(=O)N1CCC(c2ccc(C(=O)NC(=N)N)cc2C(F)(F)F)CC1 [N-{4-[1-(2-Methanesulfonyl-benzoyl)-piperidin-4-yl]-3-trifluoromethyl-benzoyl}-guanidine] | 7.16
38 | COCC(=O)N1CCC(c2ccc(C(=O)NC(=N)N)cc2C(F)(F)F)CC1 [N-{4-[1-(2-Methoxy-acetyl)-piperidin-4-yl]-3-trifluoromethyl-benzoyl}-guanidine] | 7.66
